# Measurements reported in patent publication US20240317806A1, “TOPICAL PEPTIDE FORMULATION FOR THE TREATMENT OF SEXUAL DYSFUNCTION” (priority 2023, published 2024).
# Experiments:
# [1] = Second permeation test in Franz cells; format: in vitro ADME; details: Strat-M membrane; applied in the FAPP20 buffer (20 mM sodium acetate buffer solution)
# Procedure: In the first permeation assay, the physical barrier was the whole pig skin, which mimics the human stratum corneum. In the second permeation test, the physical barrier was the Strat-M membrane, which mimics the human stratum corneum.
# (§1) The assays were conducted in Franz vertical diffusion cells with 1.767 cm^2 of area for diffusion of the peptide, containing a donor compartment with a capacity of 1 mL and a recipient compartment with a capacity of 7 mL. To the recipient compartment, 7 mL of the biorelevant solution were added, in which the media selected by preliminary studies was 20 mM sodium acetate buffer pH 5.0+0.5% Tween® 20. […] The cells were placed in a thermostatic bath, with a temperature of 37° C.±0.5° C., with the goal to mimic the surface temperature. The bioreceptor medium was subjected to 350 rpm agitation. In times 0.5-, 1-, 2-, 4-, 6- and 24 h, collections of 1 mL were made from the recipient compartment, in order to measure the peptide content.
# In the first permeation assay, PnPP-19 was formulated with 6 μM of alpha cyclodextrin or with transcutol 15%.
# Based on the release results described above, the 20 mM sodium acetate buffer pH 5.0+0.5% Tween® 20 was confirmed as the best receiving medium to be used in the permeation assay with Strat M membrane.
# [2] = Phase 1 clinical study: pharmacokinetics; format: in vivo, human; details: 12 subjects
# Procedure: Related to the pharmacokinetic analysis, the following outcomes were considered: detection of BZ371A, and its fragments, in the blood at the following collected times: pre-dose, 15, 30, 60, 180 and 360 minutes; if detected, determine the pharmacokinetic parameters: maximum concentration, half-life, area under the curve, clearance, volume of distribution.
# [3] = Biodistribution and pharmacokinetics after topical administration of radiolabeled PnPP-19 in FAPP20; format: in vivo, rats
# Procedure: In order to evaluate the in vivo permeation of the peptide (and/or its fragments) in the formulation FAPP20, a biodistribution study was carried out in healthy rats. The peptide was radiolabeled with iodine [^131I] NaI using chloramine T method.
# The study was conducted considering the dose of 5 mg/ml; and the maximum area of genital application. The final application volume was 100 μL that results in a dose of 2 mg/kg. The evaluation of biodistribution was carried out after the administration of a single dose of the peptide, applied topically to the skin of the penis after trichotomy of the rat's genital area.
# Regarding biodistribution data, radiolabeled peptide concentrations were higher in skin, foreskin and SMC tissue at all times studied. In the first analyzed time, of 15 minutes, it was already possible to detect the peptide in the target tissues: the SMC layer, and the first layer of the skin, where the penile nerves are found (herein called of foreskin), showing that the peptide is rapidly absorbed into the skin. Within 30 minutes, its detection falls at the initial application site (skin), and increases in the foreskin, showing that it continues to be absorbed, and remains stable in the SMC layer. Within 60 minutes it is practically undetectable in tissues (FIG. 4).
# For the pharmacokinetic (PK) study, the blood of the animals was collected at 0 h (predose), 15, 30 and 60 minutes, 3, 8 and 24 hours. All samples collected were quantified in a Wizard 3 gamma counter (PerkinElmer) for later calculation of the percentage of dose applied per gram of organ. […] While 42% of the applied dose is in the first layer of the skin, the peptide is detected in up to 18% in the SMC layer. Both peptide and its fragments were not found systemically (<1%) in the organs of choice (kidneys, testicles and epididymis) or in the blood, at any of the evaluated time-points, showing that the formulation remains in the application site, with no systemic absorption.
# [4] = Release test in Franz vertical diffusion cells; format: in vitro ADME; details: peptide applied in saline or in the buffer of the formulations; after 6 hours (peak) and until 24 hours
# Procedure: For the release test, a cellulose acetate membrane was used to generate the physical barrier between a donor compartment, where the formulations are added, and the recipient compartment, where the peptide is measured.
# as §1
# [5] = Physicochemical properties of PnPP-19 peptide (pI, pKa)
# Source text: Aspects of the disclosure relate to pharmaceutical compositions comprising a PnPP-19 peptide (e.g., a peptide comprising or consisting of the amino acid sequence set forth in SEQ ID NO: 1). PnPP-19 is a synthetic, non-toxic peptide composed of 19 amino acid residues originating from the PnTx2-6 toxin, which was isolated from the venom of the Brazilian armadeira spider (Phoneutria nigriventer). In some embodiments, the isolated peptide (e.g., PnPP-19) is presented as a freeze-dried white powder (e.g., a solid physical form). In some embodiments, PnPP-19 is an amphipathic peptide with about 26% cationic amino acid residues. In some embodiments, PnPP-19 is positively charged at pH 7.
# [6] = tested on: erectile function of healthy rats; assay: Erectile function (ICP/MAP ratio) after ganglionic electrical stimulation; format: in vivo, Sprague Dawley rats; details: peptide topical 4 mg/Kg 15 min before; sildenafil SC 25 mg/Kg 30 min before; EFS 8 Hz; 0-45 min
# Source text: For this study, PnPP-19 was produced with TFA or Acetate as a counter-ion. Usually, peptides with TFA as a counter-ion are used in the preclinical stage of development; nevertheless, for safety purposes, the counter-ion is changed to acetate for clinical stage of development. […] Also, to compare if the counter-ion exchange would impact the biological effect of PnPP-19, two peptide batches was produced: one with the counter-ion TFA and another with the counter-ion Acetate. Sildenafil was used as a positive control (subcutaneously administration).
# (§2) Erectile function was evaluated by means of the intracavernosal pressure/mean arterial pressure (ICP/MAP) ratio at 4 different times (0, 15, 30 and 45 minutes) after application of ganglionic electrical functional stimulus (EFS) of 8 Hz.
# (§3) The formulated peptide (both with TFA counter-ion and Acetate) was applied topically to the penis of the rats 15 minutes before ICP/MAP measurements, at a dose of 1000 μg diluted in 200 μL of the formulation (dose of 4 mg/Kg), reaching a concentration of 5 mg/mL or 0.5% w/v of the peptide in the formulation. Sildenafil was applied SC, at a dose of 25 mg/Kg (1 mL/Kg) 30 minutes before ICP/MAP measurements.
# [7] = Mean arterial pressure and dermal irritation in the erectile function study; format: in vivo, Sprague Dawley rats; details: for MAP: mean ± standard deviation
# Procedure: as §2, §3
Compound,detection of PnPP-19 in the receptor compartment (control) [1],"plasma concentrations of BZ371A fragments ([2]; no detectable concentrations, limit of detection=40 ng/ml)","plasma concentrations of BZ371A ([2]; no quantifiable concentrations, LIQ=50 ng/ml, pre-dose to 360 minutes)","applied dose/gram found in CC tissue (SMC layer) ([3]; 15 minutes after topical application to rat penis, normalized)","applied dose/gram found in the skin ([3]; 15 minutes after topical application to rat penis, normalized to total in all tissues)","peptide and fragments found systemically (kidneys, testicles, epididymis, blood) ([3]; any of the evaluated time-points up to 24 hours)",quantification of PnPP-19 in the receptor media (controls) [4],pKa [5],erectile function (ICP/MAP ratio) compared to negative control (vehicle) [6],MAP ([7]; 0 min),MAP ([7]; 15 min),MAP ([7]; 30 min),MAP ([7]; 45 min),effect on MAP / systemic hypotension compared to vehicle ([7]; rats)
Ac-GERRQYFWIAWYKLANSKK-NH2 [PnPP-19],detected in the receptor compartment since initial time (0.5 h),< 40 ng/mL,< 50 ng/mL,up to 18%,42%,< 1%,can be quantified in the receptor media,12.4,–,–,–,–,–,–
"CCCc1nn(C)c2c(=O)[nH]c(-c3cc(S(=O)(=O)N4CCN(C)CC4)ccc3OCC)nc12 [Sildenafil, sildenafil]",–,–,–,–,–,–,–,–,not superior to the negative control group,87 ± 10 (**) mmHg,93 ± 8 (*) mmHg,93 ± 8 (***) mmHg,94 ± 7 (***) mmHg,significant decrease in MAP
